Columns and labels:
PC3 = assay: MTT cytotoxicity assay, PC3; format: cell-based, human; conditions: 48 h
Method: (§1) We evaluated the cytotoxicity of 1c-6c, 1d-7d and of the positive control 1a-5a against a panel of human cancer cells using MTT (3-(4,5-dimethylthiazol-2-yl)-2,5-diphenyltetrazolium bromide) assay. The IC50 values were calculated based on three parallel experiments.
(§2) Cisplatin and oxaliplatin were purchased from Yurui Chemical Co. Ltd. (Shanghai, China). All of the other chemicals were obtained from commercial suppliers, such as Alfa […]
(§3) IonSpec QFT mass spectrometer with ESI ionization. 3-(4,5-dimethylthiazol-2-yl) […]
(§4) Phosphate-buffered saline (PBS) contains 137 mM
(§5) NaCl, 2.7 mM KCl, 10 mM Na2HPO4 and 2 mM KH2PO4. Fetal bovine serum (FBS), 0.25% trypsin/EDTA solution, and penicillin-streptomycin solution were purchased from […]
(§6) Invitrogen (Grand Island, NY, USA). […]
(§7) HeLa (cervical carcinoma cell line), MCF-7 (breast gland adenocarcinoma), LNCaP and PC3 (prostatic cancer), HepG-2 (hepatocellular carcinoma), A549 and A549R (lung carcinoma) were used for the MTT […]
(§8) In Vitro Cellular Cytotoxicity Assays
(§9) Cells seeded in 96-well plates were incubated in a 5% CO2 atmosphere in 100 µL of complete medium at 37 ℃ for 24 h. Then, 100 µL of freshly prepared culture medium containing drugs at different concentrations was added and incubated for another 48 h.
(§10) MTT (5 mg/mL, 20 µL) was added and incubated for 3 h. Finally, the medium was removed, and DMSO (150 µL) was added. The absorbance was measured at 570 nm using a Bio-Rad 680 microplate reader. The IC50 values were calculated using GraphPad […]
(§11) Prism software. […]

HepG-2 = assay: MTT cytotoxicity assay, HepG-2; format: cell-based, human; conditions: 48 h
Method: as §1, §2, §3, §4, §5, §6, §7, §8, §9, §10, §11

A549 = assay: MTT cytotoxicity assay, A549; format: cell-based, human; conditions: 48 h
Method: as §1, §2, §3, §4, §5, §6, §7, §8, §9, §10, §11

MDCK cells = assay: MTT cytotoxicity with EDG, phloretin, Ctd. in MDCK cells; format: cell-based, canine; conditions: vs IC50 at 48 h
From the text: Finally, Madin-Darby canine kidney (MDCK) cells, which are widely used to establish the model of the intestinal epithelium and to evaluate the oral administration and screening of substrates and inhibitors in vitro, were used to find a prodrug with the enhanced potential for oral administration. […] (Figure 10).

[1] = design: method as in printed; conditions: comparison values, ref not given; cited from earlier work
HeLa = assay: MTT cytotoxicity assay, HeLa; format: cell-based, human; conditions: 48 h
Method: as §1, §2, §3, §4, §5, §6, §7, §8, §9, §10, §11

LNCaP = assay: MTT cytotoxicity assay, LNCaP; format: cell-based, human; conditions: 48 h
Method: as §1, §2, §3, §4, §5, §6, §7, §8, §9, §10, §11

A549R = assay: MTT cytotoxicity assay, A549R (cisplatin-resistant); format: cell-based, human
Method: as §1, §2, §3, §4, §5, §6, §7, §8, §9, §10, §11

MCF-7 = assay: MTT cytotoxicity assay, MCF-7; format: cell-based, human; conditions: 48 h
Method: as §1, §2, §3, §4, §5, §6, §7, §8, §9, §10, §11

With `CC(=O)[O][Pt]([NH2])([Cl])([Cl])([NH]C1CCCCC1)[O]C(C)=O` [5a, satraplatin, reference compound] the IC50 (PC3) was 16.8 ± 1.56 µM, the IC50 (HepG-2) was 6.7 ± 1.89 µM and the IC50 (A549) was 2.17 ± 1.68 µM. The “effect of EDG, phloretin, Ctd. and EDG + Ctd. on IC50” value (MDCK cells) was “no great differences”, the “t1/2 in whole human blood” value [1] was 6.3 min and the IC50 (HeLa) was 3.1 ± 0.89 µM. For the same molecule, the IC50 (LNCaP) was 5.23 ± 1.77 µM, the “RF: Resistance factor = IC50(A549R)/IC50(A549)” value (A549R) was 4.59 and the IC50 (A549R; MTT, 48 h) was 9.96 ± 0.57 µM. The IC50 (MCF-7) was 8.01 ± 0.56 µM.

Source: paper PMC6160541 (Frontiers in Chemistry, 2018)
